# Legend:
# B16 = assay: In vitro cytotoxic activity was evaluated against B16 melanoma cells relative to taxol; ED50/ED50; assay type: functional
# [1] = In vitro cytotoxic activity was evaluated by microtubule assembly assay relative to taxol; ED50/ED50; assay type: functional
Structure (SMILES),Ratio (B16),Ratio [1]
CC(=O)O[C@H]1C(=O)[C@@]2(C)C([C@H](OC(=O)C3CCCCC3)[C@]3(O)C[C@H](OC(=O)[C@H](O)C(NC(=O)C4CCCCC4)C4CCCCC4)C(C)=C1C3(C)C)[C@]1(OC(C)=O)CO[C@@H]1C[C@@H]2O (some centres not stated),1.6,0.47
CC(=O)O[C@H]1C(=O)[C@@]2(C)C([C@H](OC(=O)c3ccccc3)[C@]3(O)C[C@H](OC(=O)[C@H](O)C(NC(=O)c4ccccc4)C4CCCCC4)C(C)=C1C3(C)C)[C@]1(OC(C)=O)CO[C@@H]1C[C@@H]2O (some centres not stated),0.91,0.29
CC(=O)O[C@H]1C(=O)[C@@]2(C)C([C@H](OC(=O)c3ccccc3)[C@]3(O)C[C@H](OC(=O)[C@H](O)C(NC(=O)OC(C)(C)C)c4ccccc4)C(C)=C1C3(C)C)[C@]1(OC(C)=O)CO[C@@H]1C[C@@H]2O (some centres not stated),0.23,0.55
CC(=O)O[C@H]1C(=O)[C@@]2(C)C([C@H](OC(=O)C3CCCCC3)[C@]3(O)C[C@H](OC(=O)[C@H](O)C(NC(=O)OC(C)(C)C)c4ccccc4)C(C)=C1C3(C)C)[C@]1(OC(C)=O)CO[C@@H]1C[C@@H]2O (some centres not stated),1.1,0.67
CC(=O)O[C@@]12CO[C@@H]1C[C@H](O)[C@@]1(C)C(=O)[C@H](O)C3=C(C)[C@@H](OC(=O)[C@H](O)[C@@H](NC(=O)OC(C)(C)C)c4ccccc4)C[C@@](O)([C@@H](OC(=O)c4ccccc4)[C@H]21)C3(C)C.O.O.O [DOCETAXEL],0.41,0.45
CC(=O)O[C@H]1C(=O)[C@@]2(C)[C@H]([C@H](OC(=O)c3ccccc3)[C@]3(O)C[C@H](OC(=O)[C@H](O)[C@@H](NC(=O)c4ccccc4)c4ccccc4)C(C)=C1C3(C)C)[C@]1(OC(C)=O)CO[C@@H]1C[C@@H]2O [PACLITAXEL],1,1

# Source: ChEMBL document CHEMBL1127747, “The effect of the aromatic rings of taxol on biological activity and solution conformation: synthesis and evaluation of saturated taxol and taxotere analogues” (1994)
